Source: patent US7001907B2, “Peptide-containing α-ketoamide cysteine and serine protease inhibitors” (Cephaon, Inc., priority 1997, dated 2006)

Biological target: T1, Recombinant human calpain I (Homo sapiens, UniProt P07384)
T1 construct: made in house
T1 sequence (P07384 1-714): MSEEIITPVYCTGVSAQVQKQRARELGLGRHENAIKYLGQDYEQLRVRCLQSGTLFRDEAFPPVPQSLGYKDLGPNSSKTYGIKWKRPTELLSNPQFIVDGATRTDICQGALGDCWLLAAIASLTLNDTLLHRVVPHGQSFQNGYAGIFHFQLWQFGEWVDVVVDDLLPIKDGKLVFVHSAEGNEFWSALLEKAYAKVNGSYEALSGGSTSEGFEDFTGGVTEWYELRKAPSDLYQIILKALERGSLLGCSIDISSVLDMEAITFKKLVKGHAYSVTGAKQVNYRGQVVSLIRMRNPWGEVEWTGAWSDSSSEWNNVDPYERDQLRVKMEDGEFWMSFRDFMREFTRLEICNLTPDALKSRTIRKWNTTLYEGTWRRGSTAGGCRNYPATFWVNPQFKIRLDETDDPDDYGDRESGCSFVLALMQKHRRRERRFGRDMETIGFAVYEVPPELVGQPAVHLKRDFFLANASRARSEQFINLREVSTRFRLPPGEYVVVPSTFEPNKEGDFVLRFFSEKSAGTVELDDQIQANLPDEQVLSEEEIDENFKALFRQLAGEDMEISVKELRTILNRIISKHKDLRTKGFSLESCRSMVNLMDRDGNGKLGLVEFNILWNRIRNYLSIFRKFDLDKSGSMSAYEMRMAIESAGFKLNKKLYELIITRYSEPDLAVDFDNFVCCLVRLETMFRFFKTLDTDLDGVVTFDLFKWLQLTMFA
T1 sequence (P04632 1-268 partner): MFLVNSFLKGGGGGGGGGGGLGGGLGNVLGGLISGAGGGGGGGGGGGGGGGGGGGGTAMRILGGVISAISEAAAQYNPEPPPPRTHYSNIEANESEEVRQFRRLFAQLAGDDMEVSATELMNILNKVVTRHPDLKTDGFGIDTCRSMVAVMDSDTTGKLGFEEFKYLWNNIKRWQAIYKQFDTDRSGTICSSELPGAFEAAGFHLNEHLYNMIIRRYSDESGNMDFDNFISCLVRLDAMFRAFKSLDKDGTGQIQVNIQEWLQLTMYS
Assay: Inhibition of cysteine protease activity: calpain I, Succ-Leu-Tyr-MNA substrate hydrolysis
Assay type: biochemical
Details: Table 2, linear α-ketoamides
Description: To evaluate inhibitory activity, stock solutions (40 times concentrated) of each compound to be tested were prepared in 100% anhydrous DMSO and 5 μl of each inhibitor preparation were aliquoted into each of three wells of a 96-well plate. Recombinant human calpain I, prepared by the method of Meyer et al. (Biochem. J. 1996, 314: 511–519; incorporated herein by reference in its entirety), was diluted into assay buffer (i.e., 50 mM Tris, 50 mM NaCl, 1 mM EDTA, 1 mM EGTA, and 5 mM β-mercaptoethanol, pH 7.5, including 0.2 mM Succ-Leu-Tyr-MNA), and 175 μl was aliquoted into the same wells containing the independent inhibitor stocks as well as to positive control wells containing 5 μl DMSO, but no compound. To start the reaction, 20 μl of 50 mM CaCl2 in assay buffer was added to all wells of the plate, excepting three, which were used as background signal baseline controls. Substrate hydrolysis was monitored every 5 minutes for a total of 30 minutes. Substrate hydrolysis in the absence of inhibitor was linear for up to 15 minutes.
Inhibition of calpain I activity was calculated as the percent decrease in the rate of substrate hydrolysis in the presence of inhibitor relative to the rate in its absence. Comparison between the inhibited and control rates was made within the linear range for substrate hydrolysis. The IC50s of inhibitors (concentration yielding 50% inhibition) were determined from the percent decrease in rates of substrate hydrolysis in the presence of five to seven different concentrations of the test compound. The results were plotted as percent inhibition versus log inhibitor concentration, and the IC50 was calculated by fitting the data to the four-parameter logistic equation shown below using the program GraphPad Prism (GraphPad Software, Inc., San Diego, Calif.). y=d+[(a−d)/(1+(x/c)^b)]
The parameters a, b, c, and d are defined as follows: a is % inhibition in the absence of inhibitor, b is the slope, c is the IC50, and d is the % inhibition at an infinite concentration of inhibitor.

| IC50 | SMILES |
| --- | --- |
| 29 nM | CS(=O)(=O)N[C@H](COCc1ccccc1)C(=O)N[C@@H](Cc1ccccc1)C(=O)C(=O)NCCNS(=O)(=O)c1cccnc1 [Compound 31] |
| 14 nM | CS(=O)(=O)NC(COCc1ccccc1)C(=O)NC(Cc1ccccc1)C(=O)C(=O)NCCNS(=O)(=O)c1ccc(-c2ccccc2)s1 (mixture of isomers) [Compound 42] |

Same assay, conditions: Table 2; 10 μM compound; values in brackets marked **

| Percent inhibition @ 10 μM (Calpain) | SMILES |
| --- | --- |
| (78%) | O=C(NCCNS(=O)(=O)c1ccccc1)C(=O)[C@H](Cc1ccccc1)NC(=O)[C@@H]1CCCN1S(=O)(=O)c1ccccc1 [Compound 13] |

Same assay, conditions: Table 3, branched-chain α-ketoamides

| IC50 | SMILES |
| --- | --- |
| 32 nM | C[C@@H](CNS(=O)(=O)c1ccccc1)NC(=O)C(=O)[C@H](Cc1ccccc1)NC(=O)[C@@H](COCc1ccccc1)NS(C)(=O)=O [Compound 49] |

Same assay, conditions: Table 4, α-ketoamides

| SMILES | IC50 |
| --- | --- |
| CS(=O)(=O)N[C@H](COCc1ccccc1)C(=O)N[C@@H](Cc1ccccc1)C(=O)C(=O)NCCNS(=O)(=O)c1ccc(-c2cccc(CN3CCCCC3)c2)s1 [Compound 95] | 30 nM |
| CS(=O)(=O)NC(COCc1ccccc1)C(=O)NC(Cc1ccccc1)C(=O)C(=O)NC1CCN(S(=O)(=O)c2ccc(-c3ccccn3)s2)CC1 (mixture of isomers) [Compound 107] | 23 nM |
| CS(=O)(=O)N[C@H](COCc1ccccc1)C(=O)N[C@@H](Cc1ccccc1)C(=O)C(=O)NCCNS(=O)(=O)c1ccc(-c2cccc(CN3CCC(=O)CC3)c2)s1 [Compound 115] | 16 nM |
| CS(=O)(=O)N[C@H](COCc1ccccc1)C(=O)N[C@@H](Cc1ccccc1)C(=O)C(=O)NCCNS(=O)(=O)c1cccc(-c2csc(N)n2)c1 [Compound 51] | 29 nM |
| CN(C)c1cccc2c(S(=O)(=O)NCCNC(=O)C(=O)[C@H](Cc3ccccc3)NC(=O)[C@@H](COCc3ccccc3)NS(C)(=O)=O)cccc12 [Compound 86] | 49 nM |
| CS(=O)(=O)N[C@H](COCc1ccccc1)C(=O)N[C@@H](Cc1ccccc1)C(=O)C(=O)NCCNC(=NC#N)Oc1ccccc1 [Compound 53] | 15 nM |
| CS(=O)(=O)NC(COCc1ccccc1)C(=O)NC(Cc1ccccc1)C(=O)C(=O)NCCCCCNS(=O)(=O)c1ccc(-c2ccccn2)s1 (mixture of isomers) [Compound 92] | 12 nM |

Now from value to compound:

| IC50 | SMILES |
| --- | --- |
| 36 nM | Cc1cccc(-c2ccc(S(=O)(=O)NCCNC(=O)C(=O)C(Cc3ccccc3)NC(=O)C(COCc3ccccc3)NS(C)(=O)=O)s2)c1 (mixture of isomers) [Compound 75] |
| 24 nM | CS(=O)(=O)N[C@H](COCc1ccccc1)C(=O)N[C@@H](Cc1ccccc1)C(=O)C(=O)NCCNS(=O)(=O)c1ccc(-c2cccc(CN3CCCC3)c2)s1 [Compound 103] |
| 24 nM | CS(=O)(=O)N[C@H](COCc1ccccc1)C(=O)N[C@@H](Cc1ccccc1)C(=O)C(=O)NCCNS(=O)(=O)c1ccc(-c2ccccc2C=O)s1 [Compound 98] |
| 22 nM | CS(=O)(=O)N[C@H](COCc1ccccc1)C(=O)N[C@@H](Cc1ccccc1)C(=O)C(=O)NCCNS(=O)(=O)c1ccc(-c2ccc(CN3CCOCC3)cc2)s1 [Compound 94] |
| 11 nM | CS(=O)(=O)NC(COCc1ccccc1)C(=O)NC(Cc1ccccc1)C(=O)C(=O)NCCNS(=O)(=O)c1ccc(-c2cccc(C#N)c2)s1 (mixture of isomers) [Compound 110] |

Same assay, conditions: Table 5, achiral P2 mimetic α-ketoamides

| SMILES | IC50 |
| --- | --- |
| O=C(NCCNS(=O)(=O)c1ccc(-c2ccon2)s1)C(=O)[C@H](Cc1ccccc1)NC(=O)c1c(F)cccc1Cl [Compound 140] | 58 nM |
| COc1cccc(OC)c1C(=O)N[C@@H](Cc1ccccc1)C(=O)C(=O)NCCNS(=O)(=O)c1ccc(-c2ccon2)s1 [Compound 138] | 4000 nM |
| N#Cc1cccc(-c2ccc(S(=O)(=O)NCCNC(=O)C(=O)[C@H](Cc3ccccc3)NC(=O)c3c(F)cccc3F)s2)c1 [Compound 135] | 22 nM |

The remaining lines, values ahead:

| IC50 | SMILES |
| --- | --- |
| 800 nM | O=C(NCCNS(=O)(=O)c1ccc(-c2ccccn2)s1)C(=O)[C@H](Cc1ccccc1)NC(=O)c1ccccc1 [Compound 117] |
| 178 nM | Cc1cccc(C)c1C(=O)N[C@@H](Cc1ccccc1)C(=O)C(=O)NCCNS(=O)(=O)c1ccc(-c2ccccn2)s1 [Compound 127] |
